Consider 2 compounds from patent publication US20110190345A1, “Treatment of Psychosis with a 5HT2A Antagonist and a Metabotropic Glutamate Receptor Agonist or Potentiator” (priority 2007, published 2011).

Holding throughout (type): in vivo, rat
Experiment [1] concerns Male Wistar rats. The experiment is described as follows: Ketamine-induced psychomotor activity (locomotor activity, total distance traveled). Particulars: mGluR2/3 agonist 1 mpk; for whether ketamine increased psychomotor activity (locomotor response): FIG. 2, first 60 minutes after ketamine or saline, 5-HT2a antagonist 0.2 mpk. From the text: (§1) Compounds with antipsychotic efficacy are known to block Ketamine-induced psychomotor activity in rats (Bardi et al., Behavioural Pharmacology (2007), 18(2), 103-118). Male Wistar rats were received on site and housed for 7 days with food and water ad libitum. On the day of testing, animals were given vehicle (water for mGluR2/3 agonist, 1% Tween for 5-HT2A antagonist), the 5-HT2A antagonist volinanserin (0.2 mpk), the mGluR2/3 agonist (−)-2-oxa-4-aminobicyclo[3.1.0]hexane-4,6-dicarboxylate (1 mpk), or both the 5-HT2A antagonist (0.2 mpk) and the mGluR2/3 agonist (1 mpk) and placed in locomotor activity monitors. Thirty minutes later animals received a subcutaneous injection of saline or 37.5 mg/kg Ketamine and placed back into the'locomotor activity monitors for 90 minutes. Total distance traveled was used to assess locomotor behavior. The distance traveled is summed over the ninety minutes after ketamine or saline treatment.
Similarly, locomotor response was determined over the first 60 minutes after receiving ketamine or saline as a function of treatment with vehicle, the 5-HT2a antagonist (0.2 mpk), the mGluR2/3 agonist (1 mpk), or the 5-HT2a antagonist (0.2 mpk)+the mGluR2/3 agonist (1 mpk).

Experiment [2] relates to Male Wistar rats. Put plainly: Amphetamine-induced psychomotor activity (locomotor activity, total distance traveled). Particulars: FIG. 3; summed over 90 minutes after 1.5 mg/kg s.c. amphetamine; 5-HT2a antagonist 0.2 mpk, mGluR2/3 agonist 1 mpk.
Description: as §1, with “amphetamine-induced” for “Ketamine-induced”, “1.5” for “37.5”, “amphetamine” for “Ketamine”, “the locomotor” for “the'locomotor”, “amphetamine” for “ketamine”

Experiment [3] has as its system Male Wistar rats. The experiment is described as follows: MK-801-induced psychomotor activity (locomotor activity, total distance traveled). Particulars: 5-HT2A antagonist 0.2 mpk, mGluR2/3 agonist 1 mpk; for reduction of the response to MK-801: 90 minutes after 0.2 mg/kg s.c. MK-801; for psychomotor activity, total distance traveled after MK-801: summed over 90 minutes after 0.2 mg/kg s.c. MK-801, control≃200 cm, MK-801 alone≃2000 cm.
Description: Male Wistar rats were received on site and housed for 7 days with food and water ad libitum. […] Thirty minutes later animals received a subcutaneous injection of saline or 0.2 mg/kg MK-801 and were placed back into the locomotor activity monitors for 90 minutes. Total distance traveled was used to assess locomotor behavior. The distance traveled is summed over the ninety minutes after MK-801 or saline treatment.

Take `NC1(C(=O)O)COC2C(C(=O)O)C21` (single isomer, unassigned; (-)) [mGluR2/3 agonist, (−)-2-oxa-4-aminobicyclo[3.1.0]hexane-4,6-dicarboxylate]: in the experiment with Male Wistar rats [1] (FIG. 1, summed over 90 minutes after 37.5 mg/kg s.c. ketamine, 5-HT2A antagonist 0.2 mpk, given 30 min before), the “response to ketamine (psychomotor activity, distance traveled) relative to the 0-0-Ketamine group” value is “decreased the response to ketamine”. Moreover, the “whether ketamine increased psychomotor activity (locomotor response)” value in the experiment on Male Wistar rats [1] is reported as “ketamine increased psychomotor activity”. Besides, in the experiment on Male Wistar rats [2], the “influence on amphetamine-induced psychomotor activity” value is recorded as “did not influence amphetamine-induced psychomotor activity”. In addition, in the experiment on Male Wistar rats [3], the “reduction of the response to MK-801” value is given as “Neither the mGluR2/3 agonist nor the 5-HT2A antagonist given alone reduced the response to MK-801” and the “psychomotor activity, total distance traveled after MK-801” value is roughly 1900 cm.

As to `COc1cccc([C@H](O)C2CCN(CCc3ccc(F)cc3)CC2)c1OC` [5-HT2A antagonist, (+)-alpha-(2,3-dimethoxyphenyl)-1-[2-(4 fluorophenyl)ethyl]-4-piperidine methanol], the “whether ketamine increased psychomotor activity (locomotor response)” value in the experiment on Male Wistar rats [1] is reported as “ketamine increased psychomotor activity”. For the same compound, in the experiment on Male Wistar rats [2], the “influence on amphetamine-induced psychomotor activity” value is “did not influence amphetamine-induced psychomotor activity”. For the same compound, in the experiment with Male Wistar rats [3], the “reduction of the response to MK-801” value is given as “Neither the mGluR2/3 agonist nor the 5-HT2A antagonist given alone reduced the response to MK-801” and the “psychomotor activity, total distance traveled after MK-801” value is reported as roughly 2500 cm.
